Laboratory results taken from patent US11618747B2, “LXR modulators with bicyclic core moiety” (OrsoBio, Inc., priority 2018, dated 2023).

Assays:
[1] = Pharmacokinetics in mice after single oral dosing (blood/plasma and liver exposure); type: in vivo, mice (C57/bl6/J)
Experimental: The pharmacokinetics of the compounds was assessed in mice after single dosing and oral administrations. Blood/plasma and liver exposure was measured via LC-MS.
The study design was as follows:
Animals: C57/bl6/J (Janvier) males
Diet: standard rodent chow
Animal handling: animals were withdrawn from food at least 12 h before administration
Design: single dose oral administration, n=3 animals per group
Sacrifice: at stated time point (4, 12 or 24 h) after administration
Bioanalytics: LC-MS of liver and blood/plasma samples

[2] = target: T1, ligand-binding domain (LBD) of LXRα (Homo sapiens, UniProt Q13133); test: LXR Gal4 reporter transient transfection assay (LBD-M2H Gal4α); type: cell-based; conditions: HEK293 cells, LXRα LBD; read-out: LBD-M2H Gal4α (EC50 range)
T1 construct: expressed in transfected cells; host or cells: HEK293
T1 sequence (Q13133 155-447): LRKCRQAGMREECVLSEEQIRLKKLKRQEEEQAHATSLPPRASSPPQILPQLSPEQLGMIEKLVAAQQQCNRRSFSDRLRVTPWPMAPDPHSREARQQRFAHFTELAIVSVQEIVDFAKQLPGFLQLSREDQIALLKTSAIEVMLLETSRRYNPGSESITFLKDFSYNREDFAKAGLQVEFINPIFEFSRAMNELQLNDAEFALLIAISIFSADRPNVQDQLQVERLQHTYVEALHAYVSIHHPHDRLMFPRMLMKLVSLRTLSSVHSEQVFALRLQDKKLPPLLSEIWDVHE
Experimental: (§1) The tested compounds were usually dissolved, tested and stored as 20 mM stock solutions in DMSO. Since sulfonyl acetic acid derivatives tend to decarboxylate under these conditions, these stock solutions were prepared, tested and stored as 20 mM DMSO stock solutions containing 100 mM trifluoroacetic Acid (5 equivalents). Sulfonyl acetic acid derivatives are shelf stable as solid at rt for long time as reported by Griesbrecht et al. (Synlett 2010:374) or Faucher et al. (J. Med. Chem. 2004; 47:18).
(§2) LXR Gal4 Reporter Transient Transfection Assays
(§3) LXRα and LXRβ activity status was determined via detection of interaction with coactivator and corepressor proteins in mammalian two-hybrid experiments (M2H). For this, via transient transfection the full length (FL) proteins of LXRα (amino acids 1-447; NP005684; SEQ ID NO:1) or LXRβ-(amino acids 1-461; NP009052; SEQ ID NO:2) or the ligand-binding domains (LBD) of LXRα (amino acids 155-447 SEQ ID NO:3) or LXRβ (amino acids 156-461; SEQ ID NO:4) were expressed from pCMV-AD (Stratagene) as fusions to the transcriptional activation domain of NFkB. As cofactors, domains of either the steroid receptor coactivator 1 (SRC1; amino acids 552-887; SEQ ID NO:5) or of the corepressor NCoR (amino acids 1906-2312; NP006302; SEQ ID NO:6) were expressed as fusions to the DNA binding domain of the yeast transcription factor GAL4 (from pCMV-BD; Stratagene). Interaction was monitored via activation of a coexpressed Firefly Luciferase Reporter gene under control of a promoter containing repetitive GAL4 response elements (vector pFRLuc; Stratagene). Transfection efficiency was controlled via cotransfection of constitutively active pRL-CMV Renila reniformis luciferase reporter (Promega). HEK293 cells were grown in minimum essential medium (MEM) with 2 mM L-glutamine and Earle's balanced salt solution supplemented with 8.3% fetal bovine serum, 0.1 mM non-essential amino acids, 1 mM sodium pyruvate, at 37° C. in 5% CO2. 3.5×10^4 cells/well were plated in 96-well cell culture plates in growth medium supplemented with 8.3% fetal bovine serum for 16-20 h to ˜90% confluency. For transfection, medium was taken off and LXR and cofactor expressing plasmids as well as the reporter plasmids are added in 30 μL OPTIMEM/well including polyethylene-imine (PEI) as vehicle. Typical amounts of plasmids transfected/well: pCMV-AD-LXR (5 ng), pCMV-BD-cofactor (5 ng), pFR-Luc (100 ng), pRL-CMV (0.5 ng). Compound stocks were prepared in DMSO, prediluted in MEM to a total volume of 120 μL, and added 4 h after addition of the transfection mixture (final vehicle concentration not exceeding 0.2%). Cells were incubated for additional 16 h, lysed for 10 min in 1× Passive Lysis Buffer (Promega) and Firefly and Renilla luciferase activities were measured sequentially in the same cell extract using buffers containing D-luciferine and coelenterazine, respectively. Measurements of luminescence were done in a BMG-luminometer.

[3] = target: T2, ligand-binding domain (LBD) of LXRβ (Homo sapiens, UniProt P55055, DUP175-175); test: LXR Gal4 reporter transient transfection assay (LBD-M2H Gal4β); type: cell-based; conditions: HEK293 cells, LXRβ LBD; read-out: LBD-M2H Gal4β (EC50 range)
T2 construct: LXRβ (amino acids 156-461); expressed in transfected cells; host or cells: HEK293
T2 sequence (P55055 with tags, fused parts or gaps DUP175-175 limits assumed): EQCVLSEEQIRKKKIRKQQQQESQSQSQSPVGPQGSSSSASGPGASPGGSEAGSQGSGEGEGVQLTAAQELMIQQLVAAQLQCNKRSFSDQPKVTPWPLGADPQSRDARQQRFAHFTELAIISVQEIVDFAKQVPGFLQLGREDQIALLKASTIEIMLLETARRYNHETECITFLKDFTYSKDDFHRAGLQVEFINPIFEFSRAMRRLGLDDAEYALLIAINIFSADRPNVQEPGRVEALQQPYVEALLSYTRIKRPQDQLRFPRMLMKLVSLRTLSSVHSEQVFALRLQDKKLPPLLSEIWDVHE
Experimental: as §1, §2, §3

[4] = target: T3, LXRβ ligand-binding domain (Homo sapiens, UniProt P55055, DUP175-175); test: TR-FRETβ activity assay (NCoA3 coactivator peptide recruitment); type: biochemical; conditions: TR-FRET, 1 μM 24(S)-25-epoxycholesterol prestimulation; read-out: FRETβ (EC50 range)
T3 construct: amino acids 156-461; NP009052; made in house; host or cells: E. coli
T3 sequence (P55055 with tags, fused parts or gaps DUP175-175 limits assumed): T2 sequence (P55055 with tags, fused parts or gaps DUP175-175 limits assumed)
Summary of the method: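 Inverse agonism assessed by loss of coactivator recruitment, read as TR-FRET 665/615 nm after 1 h equilibration at 4 °C, in triplicate. Ten-point titration from 50 μM to 0.002 μM against LXRβ LBD (76 nM, GST fusion) prestimulated with 1 μM 24(S)-25-epoxycholesterol, with 400 nM NCoA3 peptide, pH 6.8. Sulfonyl acetic acids kept as 20 mM DMSO stocks with 100 mM TFA.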

SMILES | blood/plasma exposure (below LLOQ, LLOQ value not given) ([1]; 20 mg/kg single oral dose, time point 4 h) | oral bioavailability (in words) ([1]; oral administration) | EC50 [2] | EC50 [3] | EC50 [4]
CCOC(=O)c1ccc(CN(Cc2ccc(-c3cccc(S(C)(=O)=O)c3)cc2)S(=O)(=O)c2c(C)cc(C)cc2C)o1 [SR9238, reference compound] | LLOQ | not orally bioavailable | – | – | –
COc1ccc(S(=O)(=O)n2c(-c3ccccc3)c(-c3ccsc3OC)c3ccccc32)cc1 [20/22] | – | – | 100 to 1000 nM | 100 to 1000 nM | 100 to 1000 nM
N#Cc1ccc(OCC(=O)O)cc1-c1c(-c2cccs2)n(S(=O)(=O)c2ccc(Cl)cc2)c2ccccc12 [21/1] | – | – | 1000 to 10000 nM | 1000 to 10000 nM | 1000 to 10000 nM
N#Cc1sccc1-c1c(-c2cccs2)n(S(=O)(=O)c2ccc(Cl)cc2)c2cc(OCCCCC(=O)O)ccc12 [15/5] | – | – | < 100 nM | < 100 nM | 1000 to 10000 nM
COc1ccc(S(=O)(=O)n2c(-c3ccccc3)c(C3=C(C#N)CCCC3)c3ccccc32)cc1 [20/16] | – | – | 100 to 1000 nM | 100 to 1000 nM | 1000 to 10000 nM
COc1ccc(S(=O)(=O)n2c(-c3ccccc3)c(C3=C(C#N)c4ccccc4CC3)c3ccccc32)cc1 [20/19] | – | – | 100 to 1000 nM | 100 to 1000 nM | > 10000 nM
N#Cc1sccc1-c1c(-c2ccccc2)n(S(=O)(=O)c2ccc(Cl)cc2)c2ccccc12 [Example 26, 3-(1-((4-Chlorophenyl)sulfonyl)-2-phenyl-1H-indol-3-yl)thiophene-2-carbonitrile] | – | – | < 100 nM | < 100 nM | 100 to 1000 nM
N#Cc1sccc1-c1c(-c2cccc(OCC(=O)O)c2)n(S(=O)(=O)c2ccc(Cl)cc2)c2ccccc12 [3/51] | – | – | 100 to 1000 nM | 100 to 1000 nM | 1000 to 10000 nM
N#Cc1sccc1-c1c(-c2cccs2)n(S(=O)(=O)c2ccc(Cl)cc2)c2ccc(OCCCCC(=O)O)cc12 [15/2] | – | – | 100 to 1000 nM | 100 to 1000 nM | > 10000 nM
NC(=O)c1sccc1-c1c(-c2cccs2)n(S(=O)(=O)c2ccc(Cl)cc2)c2ccccc12 [Example 22] | – | – | 100 to 1000 nM | 100 to 1000 nM | 1000 to 10000 nM
N#Cc1sccc1-c1c(-c2cccc(CCCC(=O)O)c2)n(S(=O)(=O)c2ccc(Cl)cc2)c2ccccc12 [30/5] | – | – | 100 to 1000 nM | < 100 nM | 1000 to 10000 nM
CS(=O)(=O)NC(=O)C1CC1c1cccc(-c2c(-c3ccsc3C#N)c3ccccc3n2S(=O)(=O)c2ccc(Cl)cc2)c1 (centres unmarked) [32/1] | – | – | 100 to 1000 nM | < 100 nM | 100 to 1000 nM
CS(=O)(=O)c1ccccc1-c1c(-c2cccs2)n(S(=O)(=O)c2ccc(Cl)cc2)c2ccccc12 [20/5] | – | – | 100 to 1000 nM | 100 to 1000 nM | 1000 to 10000 nM
Cc1cc(C)c(S(=O)(=O)n2c(-c3cccs3)c(-c3ccsc3C#N)c3ccccc32)c(C)c1 [1/26] | – | – | 100 to 1000 nM | < 100 nM | 1000 to 10000 nM
N#Cc1sccc1-c1c(-c2cccs2)n(S(=O)(=O)c2ccc(Cl)cc2)c2ccccc12 [20/13] | – | – | < 100 nM | < 100 nM | 100 to 1000 nM
Cc1ccc(S(=O)(=O)n2c(-c3cccc(-c4cccc(C(=O)O)c4)c3)c(-c3ccsc3C#N)c3ccccc32)cc1 [30/1] | – | – | 100 to 1000 nM | < 100 nM | 100 to 1000 nM
N#Cc1ccncc1-c1c(-c2cccs2)n(S(=O)(=O)c2ccc(Cl)cc2)c2ccccc12 [20/2] | – | – | 100 to 1000 nM | < 100 nM | 1000 to 10000 nM
N#Cc1cc(F)ccc1-c1c(-c2cccs2)n(S(=O)(=O)c2ccc(Cl)cc2)c2ccccc12 [20/6] | – | – | 100 to 1000 nM | < 100 nM | 100 to 1000 nM
Cc1ccc(S(=O)(=O)n2c(-c3cccc(-c4cccc(C(C)(C)C(=O)O)c4)c3)c(-c3ccsc3C#N)c3ccccc32)cc1 [30/2] | – | – | 100 to 1000 nM | 100 to 1000 nM | 1000 to 10000 nM
N#Cc1cscc1-c1c(-c2cccs2)n(S(=O)(=O)c2ccc(Cl)cc2)c2ccccc12 [20/4] | – | – | < 100 nM | < 100 nM | 1000 to 10000 nM
N#Cc1sccc1-c1c(-c2cccc(N3CC(C(=O)O)C3)c2)n(S(=O)(=O)c2ccccc2)c2ccc(F)cc12 [3/9] | – | – | 100 to 1000 nM | < 100 nM | 1000 to 10000 nM
N#Cc1sccc1-c1c(-c2cccc(OCCC(=O)O)n2)n(S(=O)(=O)c2ccc(Cl)cc2)c2ccccc12 [Example 31, 3-((6-(1-((4-Chlorophenyl)sulfonyl)-3-(2-cyanothiophen-3-yl)-1H-indol-2-yl)pyridin-2-yl)oxy)propanoic Acid] | – | – | 100 to 1000 nM | 100 to 1000 nM | 1000 to 10000 nM
N#Cc1sccc1-c1c(-c2cccc(C3CC3C(=O)O)c2)n(S(=O)(=O)C2CC2)c2ccccc12 (centres unmarked) [30/12] | – | – | 1000 to 10000 nM | 100 to 1000 nM | 1000 to 10000 nM
N#Cc1sccc1-c1c(-c2cccs2)n(S(=O)(=O)c2ccc(Cl)cc2)c2ccc(OCCCC(=O)O)cc12 [15/1] | – | – | 100 to 1000 nM | 100 to 1000 nM | 1000 to 10000 nM
COc1ccc(S(=O)(=O)n2c(-c3ccccc3)c(-c3ccc4ncccc4c3C#N)c3ccccc32)cc1 [20/20] | – | – | 1000 to 10000 nM | 100 to 1000 nM | 1000 to 10000 nM
